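Growth conditions: 96-well plates. Treatment: test compound, 48 hours, 5 concentrations. Analysis: linear interpolation between bracketing concentrations; unreached endpoints set to highest concentration. Abbreviation: GI50, concentration required for 50% inhibition of growth.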 Calls of active or inactive are those of the source. No stated cut-off is given here; in the data, active = GI50 up to about 1.1 µM and inactive = higher.
Legend:
Assay in all cases: NCI-60 cell line screen, 48 h
[1] = test system: SNB-19
[2] = test system: NCI-H460
[3] = test system: SNB-78
[4] = test system: HCT-116
[5] = test system: MOLT-4
[6] = test system: LXFL 529
[7] = test system: UACC-62
[8] = test system: HL-60
[9] = test system: LOX IMVI
[10] = test system: SF-295
[11] = test system: M14
[12] = test system: CCRF-CEM
[13] = test system: DMS-273
[14] = test system: HCT-15
[15] = test system: BT-549
[16] = test system: MDA-MB-435
[17] = test system: MDA-MB-231
[18] = test system: Hs-578T
[19] = test system: MCF7

Row | Compound | GI50 [1] | GI50 [2] | GI50 [3] | GI50 [4] | GI50 [5] | GI50 [6] | GI50 [7] | GI50 [8] | GI50 [9] | GI50 [10] | GI50 [11] | GI50 [12] | GI50 [13] | GI50 [14] [µM] | GI50 [15] | GI50 [16] | GI50 [17] | GI50 [18] | GI50 [19]
1 | CCCCCCC(=O)C/C(=N/NC(N)=S)C(=O)NC1C2CC3CC(C2)CC1C3 (stereo not drawn) | > 100 µM (inactive) | > 100 µM (inactive) | > 100 µM (inactive) | > 100 µM (inactive) | > 100 µM (inactive) | > 100 µM (inactive) | > 100 µM (inactive) | > 100 µM (inactive) | > 100 µM (inactive) | > 100 µM (inactive) | > 100 µM (inactive) | > 100 µM (inactive) | – | – | – | – | – | – | –
2 | CN1C(=O)C2C=CC1C1CCC2N(C)C1=O (stereo not drawn) | > 100 µM (inactive) | – | > 100 µM (inactive) | > 100 µM (inactive) | > 100 µM (inactive) | > 100 µM (inactive) | > 100 µM (inactive) | > 100 µM (inactive) | > 100 µM (inactive) | > 100 µM (inactive) | > 100 µM (inactive) | > 100 µM (inactive) | > 100 µM (inactive) | > 100 | – | – | – | – | –
3 | Cc1ccc(S(=O)(=O)N2CCN(C=S)CC2)cc1 | > 100 µM (inactive) | > 100 µM (inactive) | > 100 µM (inactive) | > 100 µM (inactive) | > 100 µM (inactive) | > 100 µM (inactive) | > 100 µM (inactive) | > 100 µM (inactive) | > 100 µM (inactive) | – | > 100 µM (inactive) | > 100 µM (inactive) | > 100 µM (inactive) | > 100 | – | – | – | – | –
4 | C[C@@]1(CO)[C@H](O)CC[C@@]2(C)[C@H]1CC[C@H]1C[C@@H]3C[C@@]12CC[C@@]3(O)COC(=O)CN | – | – | – | – | 2.23 µM (inactive) | > 100 µM (inactive) | 2.32 µM (inactive) | 0.293 µM (active) | 5.57 µM (inactive) | – | 5.15 µM (inactive) | 0.67 µM (active) | 0.486 µM (active) | – | 42.3 µM (inactive) | 11.6 µM (inactive) | 34.8 µM (inactive) | 53.1 µM (inactive) | –
5 | CC1(C)COC(c2c(-c3ccccc3)noc2C[S+]([O-])c2ccccc2)=N1 (stereo not drawn) | > 100 µM (inactive) | 28.3 µM (inactive) | 7.48 µM (inactive) | 28.2 µM (inactive) | 22.5 µM (inactive) | 30.2 µM (inactive) | 20.7 µM (inactive) | 23.9 µM (inactive) | 41 µM (inactive) | 34.6 µM (inactive) | 48.9 µM (inactive) | 29.2 µM (inactive) | 31.2 µM (inactive) | 27.4 | – | – | – | – | –
6 | CN1C(=O)c2ccccc2OC12C=Cc1ccc(O)cc1O2 (stereo not drawn) | 20.4 µM (inactive) | 20 µM (inactive) | – | 25.8 µM (inactive) | 16.7 µM (inactive) | – | 28.8 µM (inactive) | 17.8 µM (inactive) | 9.62 µM (inactive) | 29.9 µM (inactive) | 12.7 µM (inactive) | 19.3 µM (inactive) | – | 29.6 | 30.8 µM (inactive) | 16.4 µM (inactive) | 18.5 µM (inactive) | 19.3 µM (inactive) | 32.4 µM (inactive)
7 | COc1ccc(-c2nc(SCC(=O)N/N=C/c3ccc([N+](=O)[O-])cc3)[nH]c2-c2ccc(OC)cc2)cc1 | 24.4 µM (inactive) | 10.3 µM (inactive) | – | 8.49 µM (inactive) | 7.66 µM (inactive) | – | 7.01 µM (inactive) | 4.07 µM (inactive) | 14 µM (inactive) | 8.05 µM (inactive) | 12.2 µM (inactive) | 3.18 µM (inactive) | – | 8.55 | 19.1 µM (inactive) | 3.24 µM (inactive) | 21.2 µM (inactive) | 14.4 µM (inactive) | 4.44 µM (inactive)
8 | COc1cc(/C=C2/SC(c3ccccc3)N(c3ccccc3)C2=O)cc(OC)c1OC (stereo not drawn) | > 100 µM (inactive) | 76 µM (inactive) | – | 15.7 µM (inactive) | 8.24 µM (inactive) | – | 24.4 µM (inactive) | 35.6 µM (inactive) | 69.5 µM (inactive) | 27 µM (inactive) | 49.9 µM (inactive) | 10.6 µM (inactive) | – | 61.7 | 29 µM (inactive) | 33.4 µM (inactive) | > 100 µM (inactive) | > 100 µM (inactive) | 37.8 µM (inactive)
9 | CCOC(=O)NC(=O)c1cn(CCOC(=O)NCCCCCCNC(=O)OCCn2cc(C(=O)NC(=O)OCC)c(=O)[nH]c2=O)c(=O)[nH]c1=O | > 100 µM (inactive) | > 100 µM (inactive) | > 100 µM (inactive) | > 100 µM (inactive) | > 100 µM (inactive) | > 100 µM (inactive) | > 100 µM (inactive) | > 100 µM (inactive) | > 100 µM (inactive) | > 100 µM (inactive) | > 100 µM (inactive) | > 100 µM (inactive) | > 100 µM (inactive) | > 100 | – | – | – | – | –
10 | C=CCN1CN(C2CCCCC2)CSC1=S | 16.9 µM (inactive) | 4.12 µM (inactive) | – | 1.55 µM (inactive) | 1.11 µM (active) | – | 5.86 µM (inactive) | 0.129 µM (active) | 3.9 µM (inactive) | 28.4 µM (inactive) | 2.77 µM (inactive) | 0.818 µM (active) | – | 2.54 | 7.69 µM (inactive) | 0.944 µM (active) | 15.5 µM (inactive) | 4.94 µM (inactive) | 1.26 µM (inactive)
11 | Cc1cn(CC2=NCCN2)c(=O)[nH]c1=O | > 100 µM (inactive) | > 100 µM (inactive) | – | > 100 µM (inactive) | > 100 µM (inactive) | – | > 100 µM (inactive) | > 100 µM (inactive) | > 100 µM (inactive) | > 100 µM (inactive) | > 100 µM (inactive) | > 100 µM (inactive) | – | > 100 | > 100 µM (inactive) | > 100 µM (inactive) | > 100 µM (inactive) | > 100 µM (inactive) | > 100 µM (inactive)
12 | CNc1ccc(Cl)cc1C(=O)N1CCC[C@H]1CO | > 100 µM (inactive) | > 100 µM (inactive) | – | > 100 µM (inactive) | > 100 µM (inactive) | – | > 100 µM (inactive) | > 100 µM (inactive) | > 100 µM (inactive) | > 100 µM (inactive) | > 100 µM (inactive) | > 100 µM (inactive) | – | > 100 | > 100 µM (inactive) | > 100 µM (inactive) | > 100 µM (inactive) | > 100 µM (inactive) | > 100 µM (inactive)
13 | CC(C)CCCC(C)[C@H]1CCC2[C@@H]3CCC4Cc5nc6c(nc5C[C@]4(C)C3CC[C@@]21C)CC1CC[C@@H]2C(CC[C@@]3(C)C2CC[C@@H]3C(C)CCCC(C)C)[C@@]1(C)C6 (stereo partly drawn) | > 100 µM (inactive) | > 100 µM (inactive) | – | > 100 µM (inactive) | > 100 µM (inactive) | – | > 100 µM (inactive) | > 100 µM (inactive) | > 100 µM (inactive) | > 100 µM (inactive) | > 100 µM (inactive) | > 100 µM (inactive) | – | > 100 | > 100 µM (inactive) | > 100 µM (inactive) | > 100 µM (inactive) | > 100 µM (inactive) | > 100 µM (inactive)
14 | CC(C)(C)OC(=O)C#CC[C@H]1CCCC1/C=C/C(O)=C1/C(=O)NC(CCCNC(=O)OC(C)(C)C)C1=O (stereo partly drawn) | 30.6 µM (inactive) | 20.3 µM (inactive) | – | 11.4 µM (inactive) | 32.1 µM (inactive) | 21.8 µM (inactive) | 18.3 µM (inactive) | 33.3 µM (inactive) | 19.8 µM (inactive) | 41.4 µM (inactive) | 45.7 µM (inactive) | 27.2 µM (inactive) | 26.1 µM (inactive) | – | – | – | – | – | –
15 | CCCCc1ccc(-n2sc3ncc([N+](=O)[O-])cc3c2=O)cc1 | 13.7 µM (inactive) | 12.7 µM (inactive) | – | 8.57 µM (inactive) | 20.3 µM (inactive) | – | 8.69 µM (inactive) | 10.4 µM (inactive) | 13.3 µM (inactive) | 10.5 µM (inactive) | 17.4 µM (inactive) | 7.24 µM (inactive) | – | 15.1 | 17.2 µM (inactive) | 14.4 µM (inactive) | 11.4 µM (inactive) | 4.93 µM (inactive) | 16 µM (inactive)
16 | CC(C)[C@@H]1ON1C(C)c1ccccc1 (stereo partly drawn) | > 100 µM (inactive) | > 100 µM (inactive) | – | > 100 µM (inactive) | > 100 µM (inactive) | – | > 100 µM (inactive) | 94.8 µM (inactive) | > 100 µM (inactive) | > 100 µM (inactive) | > 100 µM (inactive) | > 100 µM (inactive) | – | 79.6 | > 100 µM (inactive) | > 100 µM (inactive) | > 100 µM (inactive) | > 100 µM (inactive) | 13.7 µM (inactive)
17 | S=C1SCC2CCCN12 (stereo not drawn) | > 100 µM (inactive) | > 100 µM (inactive) | > 100 µM (inactive) | > 100 µM (inactive) | > 100 µM (inactive) | > 100 µM (inactive) | > 100 µM (inactive) | > 100 µM (inactive) | > 100 µM (inactive) | > 100 µM (inactive) | > 100 µM (inactive) | > 100 µM (inactive) | > 100 µM (inactive) | > 100 | – | – | – | – | –
18 | Cn1c(=O)cc2[nH]c3ccccc3n2c1=O | > 100 µM (inactive) | 57.5 µM (inactive) | 86.5 µM (inactive) | > 10 µM (inactive) | > 100 µM (inactive) | 42.8 µM (inactive) | > 100 µM (inactive) | > 100 µM (inactive) | 20.2 µM (inactive) | > 100 µM (inactive) | 72.9 µM (inactive) | 41.5 µM (inactive) | 25.5 µM (inactive) | 33.7 | – | – | – | – | –
19 | Oc1cccc2ccc(Br)nc12 | > 100 µM (inactive) | > 100 µM (inactive) | – | > 100 µM (inactive) | > 100 µM (inactive) | – | > 100 µM (inactive) | 36.2 µM (inactive) | > 100 µM (inactive) | > 100 µM (inactive) | > 100 µM (inactive) | 46.6 µM (inactive) | – | > 100 | > 100 µM (inactive) | > 100 µM (inactive) | > 100 µM (inactive) | > 100 µM (inactive) | > 100 µM (inactive)

From ChEMBL document CHEMBL1201862, “PubChem BioAssay data set” (2004)
